Measurements reported in patent US9914730B2, “Azaquinazoline inhibitors of Atypical protein Kinase C” (Ignyta, Inc., priority 2012, dated 2018).
pIC50: −log10 of the molar value.

Target: T1, full-length human PKCι (Homo sapiens, UniProt P41743)
T1 construct: Recombinant, full-length human PKCι expressed in Sf21 insect cells is also commercially available; purchased; host or cells: Sf21 insect cells
T1 sequence (P41743 1-596): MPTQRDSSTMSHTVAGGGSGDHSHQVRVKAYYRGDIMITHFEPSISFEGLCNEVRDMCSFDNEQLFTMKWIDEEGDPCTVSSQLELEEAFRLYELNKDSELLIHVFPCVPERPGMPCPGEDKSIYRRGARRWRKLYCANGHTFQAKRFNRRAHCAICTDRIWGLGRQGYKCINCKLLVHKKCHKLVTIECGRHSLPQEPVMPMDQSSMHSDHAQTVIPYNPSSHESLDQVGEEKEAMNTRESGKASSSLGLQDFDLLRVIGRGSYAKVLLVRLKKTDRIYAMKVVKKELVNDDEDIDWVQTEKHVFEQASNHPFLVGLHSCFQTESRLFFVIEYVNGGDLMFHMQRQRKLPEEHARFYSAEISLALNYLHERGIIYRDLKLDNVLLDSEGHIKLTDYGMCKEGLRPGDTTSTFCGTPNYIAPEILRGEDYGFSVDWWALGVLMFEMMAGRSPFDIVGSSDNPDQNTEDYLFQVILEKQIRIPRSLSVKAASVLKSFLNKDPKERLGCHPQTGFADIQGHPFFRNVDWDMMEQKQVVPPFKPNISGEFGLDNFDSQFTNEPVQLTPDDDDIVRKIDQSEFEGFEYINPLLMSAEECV
Experiment: PKCι IC50 IMAP assay, full-length PKCι at 150 μM ATP
Format: biochemical
Conditions: read-out: IC50 in IMAP assay against full length PKCi at 150 μM ATP
Outline: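 Full-length human PKCι from Sf21 cells, typically 15 pM, with 100 nM 5FAM-PKCε pseudosubstrate peptide and 150 μM ATP (5× apparent KM), 60 min at room temperature, 4% DMSO. IMAP fluorescence polarisation read-out; inhibition normalised to no-compound and no-enzyme controls, IC50 from curve fit.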

SMILES	pIC50
NC1CCN(c2nc(-c3ccnc(Nc4c(F)cccc4F)c3)nc3cncc(C4CC4)c23)C1 (stereo not drawn) [Example 708, {4-[4-(3-Amino-pyrrolidin-1-yl)-5-cyclopropyl-pyrido[3,4-d]pyrimidin-2-yl]-pyridin-2-yl}-(2,6-difluoro-phenyl)-amine]	6.00 to 7.00
FC(F)(F)C1CN(c2nc(-c3ccncc3)nc3c(Cl)nccc23)CCN1 (stereo not drawn) [Example 60, 1-[8-chloro-2-(pyridin-4-yl)-pyrido[3,4-d]-pyrimidin-4-yl]-3-(trifluoromethyl)-piperazine]	5.00 to 6.00
N[C@H](CNc1nc(-c2ccncc2)nc2c(-c3ccc(-c4ccc(Cl)cc4)cc3)nccc12)Cc1ccccc1 [Example 107, N-[(2S)-2-amino-3-phenylpropyl]-8-[4-(4-chloro-phenyl)-phenyl]-2-(pyridin-4-yl)pyrido[3,4-d]pyrimidin-4-amine]	5.00 to 6.00
CS(=O)(=O)CCN1CCN(c2nc(-c3ccnc(Nc4ccc(F)cc4)c3)nc3cncc(C4CC4)c23)CC1 [Example 664, (4-{5-Cyclopropyl-4-[4-(2-methanesulfonyl-ethyl)-piperazin-1-yl]-pyrido[3,4-d]pyrimidin-2-yl}-pyridin-2-yl)-(4-fluoro-phenyl)-amine]	5.00 to 6.00
Fc1cccc(F)c1-c1cc2c(-c3nc(N4CCNCC4)c4c(C5CC5)cncc4n3)ccnc2[nH]1 [Example 2145, 5-Cyclopropyl-2-[2-(2,6-difluoro-phenyl)-1H-pyrroIo[2,3-b]pyridin-4-yl]-4-piperazin-1-yl-pyrido[3,4-d]pyrimidine]	> 7.00
Cc1ccccc1Nc1cc(-c2nc(N3CCNCC3)c3c(C4CC4)cncc3n2)ccn1 [Example 486, [4-(5-Cyclopropyl-4-piperazin-1-yl-pyrido[3,4-d]pyrimidin-2-yl)-pyridin-2-yl]-o-tolyl-amine]	> 7.00
COc1cncc2nc(-c3ccnc4[nH]ccc34)nc(N3CCN[C@@H](CO)C3)c12 [Example 1206, {(R)-4-[5-Methoxy-2-(1H-pyrrolo[2,3-b]pyridin-4-yl)-pyrido[3,4-d]pyrimidin-4-yl]-piperazin-2-yl}-methanol]	> 7.00
N[C@H](CNc1nc(-c2ccncc2)nc2cnc(Cl)cc12)Cc1ccccc1 [Example 12, N-[(2S)-2-amino-3-phenylpropyl]-6-chloro-2-(pyridin-4-yl)pyrido[3,4-d]-pyrimidin-4-amine]	> 7.00
COc1cncc2nc(-c3ccnc(NC(=O)Cc4ccccc4)c3)nc(N3CCNCC3)c12 [Example 371, N-[4-(5-Methoxy-4-piperazin-1-yl-pyrido[3,4-d]pyrimidin-2-yl)-pyridin-2-yl]-2-phenyl-acetamide]	> 7.00
COc1cncc2nc(-c3ccncc3)nc(NC[C@@H](N)[C@H](F)c3ccccc3)c12 [Example 47, N-[(2R,3R)-2-amino-3-fluoro-3-phenylpropyl]-5-methoxy-2-(pyridin-4-yl)pyrido[3,4-d]-pyrimidin-4-amine]	> 7.00
c1cc(-c2nc(N3CCNCC3)c3c(C4CC4)cncc3n2)cc(Nc2nc3cc(C4CC4)ccn3n2)n1 [Example 831, [4-(5-Cyclopropyl-4-piperazin-1-yl-pyrido[3,4-d]pyrimidin-2-yl)-pyridin-2-yl]-(7-cyclopropyl-[1,2,4]triazolo[1,5-a]pyridin-2-yl)-amine]	> 7.00
CC(=O)N1CCC(Nc2nc(-c3ccnc(Nc4c(F)cccc4F)c3)nc3cncc(C4CC4)c23)CC1 [Example 2085, 1-(4-{5-Cyclopropyl-2-[2-(2,6-difluoro-phenylamino)-pyridin-4-yl]-pyrido[3,4-d]pyrimidin-4-ylamino}-piperidin-1-yl)-ethanone]	6.00 to 7.00
COc1cncc2nc(-c3ccncc3F)nc(N3CCNCC3)c12 [Example 63, 1-[2-(3-fluoropyridin-4-yl)-5-methoxypyrido-[3,4-d]pyrimidin-4-yl]piperazine]	6.00 to 7.00
CN1CCN(c2nc(-c3ccncc3)nc3cnccc23)CC1 [Example 18, 1-methyl-4-[2-(pyridin-4-yl)-pyrido[3,4-d]-pyrimidin-4-yl]-piperazine]	4.40 to 5.00
O=C(Cc1c(F)cccc1F)Nc1cc(-c2nc(N3CCNCC3)c3c(C4CC4)cncc3n2)ccn1 [Example 639, N-[4-(5-Cyclopropyl-4-piperazin-1-yl-pyrido[3,4-d]pyrimidin-2-yl)-pyridin-2-yl]-2-(2,6-difluoro-phenyl)-acetamide]	> 7.00
CN(C)c1ccc(Nc2cc(-c3nc(N4CCNCC4)c4c(C5CC5)cncc4n3)ccn2)cn1 [Example 551, N^5-[4-(5-Cyclopropyl-4-piperazin-1-yl-pyrido[3,4-d]pyrimidin-2-yl)-pyridin-2-yl]-N^2,N^2-dimethyl-pyridine-2,5-diamine]	> 7.00
FC(F)(F)c1cc2c(-c3nc(N4CCOCC4)c4c(C5CC5)cncc4n3)ccnc2[nH]1 [Example 1227, 5-Cyclopropyl-4-morpholin-4-yl-2-(2-trifluoromethyl-1H-pyrrolo[2,3-b]pyridin-4-yl)-pyrido[3,4-d]pyrimidine]	4.40 to 5.00
CN1CCN(c2cccc(Nc3cc(-c4nc(N5CCCCCC5)c5c(C6CC6)cncc5n4)ccn3)c2)CC1 [Example 804, [4-(4-Azepan-1-yl-5-cyclopropyl-pyrido[3,4-d]pyrimidin-2-yl)-pyridin-2-yl]-[3-(4-methyl-piperazin-1-yl)-phenyl]-amine]	6.00 to 7.00
C[C@H]1CN(c2nc(-c3ccnc4[nH]c(C(F)(F)F)cc34)nc3cncc(C4CC4)c23)CCN1 [Example 1233, 5-Cyclopropyl-4-((S)-3-methyl-piperazin-1-yl)-2-(2-trifluoromethyl-1H-pyrrolo[2,3-b]pyridin-4-yl)-pyrido[3,4-d]pyrimidine]	> 7.00
COc1cncc2nc(-c3ccnc(Nc4cccc(C(F)(F)F)c4F)c3)nc(N3CCNCC3)c12 [Example 452, (2-Fluoro-3-trifluoromethyl-phenyl)-[4-(5-methoxy-4-piperazin-1-yl-pyrido[3,4-d]pyrimidin-2-yl)-pyridin-2-yl]-amine]	6.00 to 7.00
COc1cncc2nc(-c3ccnc(Nc4ccc(C(F)(F)F)nc4)c3)nc(N3CCNCC3)c12 [Example 395, [4-(5-Methoxy-4-piperazin-1-yl-pyrido[3,4-d]pyrimidin-2-yl)-pyridin-2-yl]-(6-trifluoromethyl-pyridin-3-yl)-amine]	6.00 to 7.00
COc1cncc2nc(-c3ccnc(Nc4c(F)ccc(F)c4F)c3)nc(N3CCN[C@@H](CF)C3)c12 [Example 237, {4-[4-((R)-3-Fluoromethyl-piperazin-1-yl)-5-methoxy-pyrido[3,4-d]pyrimidin-2-yl]-pyridin-2-yl}-(2,3,6-trifluoro-phenyl)-amine]	5.00 to 6.00
Fc1cccc(F)c1Nc1cc(-c2nc(NCC3CCN(C4CCC4)CC3)c3c(C4CC4)cncc3n2)ccn1 [Example 2103, (1-Cyclobutyl-piperidin-4-ylmethyl)-{5-cyclopropyl-2-[2-(2,6-difluoro-phenylamino)-pyridin-4-yl]-pyrido[3,4-d]pyrimidin-4-yl}-amine]	6.00 to 7.00
Clc1ccccc1Nc1cc(-c2nc(N3CCNCC3)c3c(C4CC4)cncc3n2)ccn1 [Example 477, (2-Chloro-phenyl)-[4-(5-cyclopropyl-4-piperazin-1-yl-pyrido[3,4-d]pyrimidin-2-yl)-pyridin-2-yl]-amine]	> 7.00
COc1cncc2nc(-c3ccnc(Nc4nc(C5CC5)cs4)c3)nc(N3CCNCC3)c12 [Example 204, (4-Cyclo-propyl-thiazol-2-yl)-[4-(5-methoxy-4-piperazin-1-yl-pyrido[3,4-d]pyrimidin-2-yl)-pyridin-2-yl]-amine]	> 7.00
c1ccc(-c2ccc(Nc3cc(-c4nc(N[C@@H]5CCNC5)c5ccncc5n4)ccn3)nc2)cc1 [Example 318, {2-[2-(5-Phenyl-pyridin-2-ylamino)-pyridin-4-yl]-pyrido[3,4-d]pyrimidin-4-yl}-(R)-pyrrolidin-3-yl-amine]	> 7.00
NCCNc1nc(-c2ccncc2)nc2cnccc12 [Example 3, N-(2-aminoethyl)-2-(pyridin-4-yl)-pyrido[3,4-d]-pyrimidin-4-amine]	4.40 to 5.00
Fc1cnc(Nc2cc(-c3nc(N4CC5CNCC5C4)c4c(C5CC5)cncc4n3)ccn2)c(F)c1 (stereo not drawn) [Example 2132, {4-[5-Cyclopropyl-4-(hexahydro-pyrrolo[3,4-c]pyrrol-2-yl)-pyrido[3,4-d]pyrimidin-2-yl]-pyridin-2-yl}-(3,5-difluoro-pyridin-2-yl)-amine]	> 7.00
FC(F)(F)c1cccc(Nc2cc(-c3nc(N4CCNCC4)c4c(C5CC5)cncc4n3)ccn2)c1 [Example 646, [4-(5-Cyclopropyl-4-piperazin-1-yl-pyrido[3,4-d]pyrimidin-2-yl)-pyridin-2-yl]-(3-trifluoromethyl-phenyl)-amine]	> 7.00
c1ccn2nc(Nc3cc(-c4nc(N5CCNCC5)c5c(C6CC6)cncc5n4)ccn3)cc2c1 [Example 2072, [4-(5-Cyclopropyl-4-piperazin-1-yl-pyrido[3,4-d]pyrimidin-2-yl)-pyridin-2-yl]-pyrazolo[1,5-a]pyridin-2-yl-amine]	> 7.00
